# According to article PMC9728158, “Two Flavonoid-Based Compounds from Murraya paniculata as Novel Human Carbonic Anhydrase Isozyme II Inhibitors Detected by a Resazurin Yeast-Based Assay” (Journal of Microbiology and Biotechnology, 2019):
# Target: T1, human carbonic anhydrase isozyme II (hCAII) (Homo sapiens, UniProt P00918)
# T1 construct: gene CA2
# Assay: in vitro esterase assay (4-NPA hydrolysis, […] nm); also yeast-based hCAII assay
# Type: biochemical
row,IC50 [µM],Compound
1,24,"COc1cc(-c2cc(=O)c3c(OC)c(OC)c(OC)c(OC)c3o2)cc(OC)c1OC [compound 4, 5,6,7,8,3′,4′,5′-heptamethoxyflavone]"
2,34.3,"COc1cc(-c2oc3c(OC)c(OC)cc(OC)c3c(=O)c2OC)cc(OC)c1OC [compound 9, 3,5,7,8,3′,4′,5′-Heptamethoxyflavone]"
